Experimental findings from patent US20070049564A1 (Wyeth, priority 2005, published 2007) are described below.

Experiment [1] has as its system Staph. Put plainly: Range of MIC for Staph. strains, including MRSA. The settings on record: Staphylococcus aureus, MRSA.
Procedure: Antimicrobial susceptibility testing. The in vitro activities of the antibiotics are determined by the broth microdilution method as recommended by the National Committee for Clinical Laboratory Standards (NCCLS) (1). Mueller-Hinton II broth (MHBII)(BBL Cockeysville, Md.) is the medium employed in the testing procedures. Microtiter plates containing serial dilutions of each antimicrobial agent are inoculated with each organism to yield the appropriate density (10^5 CFU/ml) in a 100 μl final volume. The plates are incubated for 18-22 hours at 35° C. in ambient air.
Representative compounds were first incubated in mouse serum for an hour prior to the in vitro testing against a panel of selected gram-positive and gram-negative bacteria strains. All compounds were also pre-incubated in water for an hour prior to testing as control. Representative compounds of Formula I were incubated in human serum prior to MIC determination.
The test system of experiment [2] is E. coli. The experiment in a line: Range of MIC for E. coli strains. The settings on record: Escherichia coli.
Where [3] appears, read: read-out: Range of MIC, Staph (Mouse Serum).
The mark [4] stands for this setting: read-out: Range of MIC, Staph (Water).
[5] abbreviates: read-out: Range of MIC, E. coli (Water).
[6] abbreviates: 20 h, read-out: Range of MIC, E. coli (Mouse Serum).

Structures are written as SMILES. In brackets after ≈: the same amount, converted by molar mass. Read-outs that look alike come from different tables or passages of the source.

As for `CN(C)c1cc(NC(=O)OCOC(=O)c2ccc(F)cc2)c(O)c2c1C[C@H]1C[C@H]3[C@H](N(C)C)C(O)=C(C(N)=O)C(=O)[C@@]3(O)C(O)=C1C2=O` [Example 76, [({[(5aR,6aS,7S,10aS)-9-(aminocarbonyl)-4,7-bis(dimethylamino)-1,8,10a, 1-tetrahydroxy-10,12-dioxo-5,5a,6,6a,7,10,10a,12-octahydrotetracen-2-yl]amino}carbonyl)oxy]methyl 4-fluorobenzoate], the MIC was 8 to 16 µg/mL (≈ 12 to 23.9 µM) in experiment [1] (setting [3]), 8 to 32 µg/mL (≈ 12 to 47.9 µM) in experiment [1] (setting [4]) and above 64 µg/mL in experiment [2] (setting [5]).

With `Cc1cc(C)cc(C(=O)OCOC(=O)Nc2cc(N(C)C)c3c(c2O)C(=O)C2=C(O)[C@]4(O)C(=O)C(C(N)=O)=C(O)[C@@H](N(C)C)[C@@H]4C[C@@H]2C3)c1` [Example 77, [({[(5aR,6aS,7S,10aS)-9-(aminocarbonyl)-4,7-bis(dimethylamino)-1,8,10a,11-tetrahydroxy-10,12-dioxo-5,5a,6,6a,7,10,10a,12-octahydrotetracen-2-yl]amino}carbonyl)oxy]methyl 3,5-dimethylbenzoate], the MIC in experiment [1] (setting [3]) was 2 to 4 µg/mL (≈ 2.95 to 5.89 µM); in experiment [1] (setting [4]), 4 to 32 µg/mL (≈ 5.89 to 47.1 µM); in experiment [2] (setting [5]) it was above 64 µg/mL.

Turning to `CN(C)c1cc(NC(=O)OCOC(=O)C(C)(C)C)c(O)c2c1C[C@H]1C[C@H]3[C@H](N(C)C)C(O)=C(C(N)=O)C(=O)[C@@]3(O)C(O)=C1C2=O` [Example 78, [({[(5aR,6aS,7S,10aS)-9-(aminocarbonyl)-4,7-bis(dimethylamino)-1,8,10a,11-tetrahydroxy-10,12-dioxo-5,5a,6,6a,7,10,10a,12-octahydrotetracen-2-yl]amino}carbonyl)oxy]methyl pivalate], the MIC in experiment [1] (setting [3]) was 8 µg/mL (≈ 12.7 µM); in experiment [1] (setting [4]), 8 to 32 µg/mL (≈ 12.7 to 50.7 µM); in experiment [2] (setting [6]), 16 to 64 µg/mL (≈ 25.4 to 101 µM); in experiment [2] (setting [5]), above 64 µg/mL.

Regarding `CN(C)c1cc(NC(=O)OCOC(=O)CC(C)(C)C)c(O)c2c1C[C@H]1C[C@H]3[C@H](N(C)C)C(O)=C(C(N)=O)C(=O)[C@@]3(O)C(O)=C1C2=O` [Example 79, [({[(5aR,6aS,7S,10aS)-9-(aminocarbonyl)-4,7-bis(dimethylamino)-1,8,10a,11-tetrahydroxy-10,12-dioxo-5,5a,6,6a,7,10,10a,12-octahydrotetracen-2-yl]amino}carbonyl)oxy]methyl 3,3-dimethylbutanoate], the MIC was 4 µg/mL (≈ 6.2 µM) in experiment [1] (setting [3]), 4 to 8 µg/mL (≈ 6.2 to 12.4 µM) in experiment [1] (setting [4]) and above 64 µg/mL in experiment [2] (setting [5]).

In the case of `CN(C)c1cc(NC(=O)CN(C(=O)OCOC(=O)c2cn(C)c3ccccc23)C(C)(C)C)c(O)c2c1C[C@H]1C[C@H]3[C@H](N(C)C)C(O)=C(C(N)=O)C(=O)[C@@]3(O)C(O)=C1C2=O` [Example 83, ({[(2-{[(5aR,6aS,7S,10aS)-9-(aminocarbonyl)-4,7-bis(dimethylamino)-1,8,10a,11-tetrahydroxy-10,12-dioxo-5,5a,6,6a,7,10,10a,12-octahydrotetracen-2-yl]amino}-2-oxoethyl)(tert-butyl)amino]carbonyl}oxy)methyl 1-methyl-1H-indole-3-carboxylate], the values for the MIC in experiment [1] (setting [3]), in experiment [1] (setting [4]) and in experiment [2] (setting [5]) were 8 to 32 µg/mL (≈ 9.79 to 39.2 µM), 2 to 16 µg/mL (≈ 2.45 to 19.6 µM) and above 64 µg/mL, respectively.

Turning to `CN(C)c1cc(NC(=O)CN(C(=O)OCOC(=O)c2ccc3ccccc3n2)C(C)(C)C)c(O)c2c1C[C@H]1C[C@H]3[C@H](N(C)C)C(O)=C(C(N)=O)C(=O)[C@@]3(O)C(O)=C1C2=O` [Example 84, ({[(2-{[(5aR,6aS,7S,10aS)-9-(aminocarbonyl)-4,7-bis(dimethylamino)-1,8,10a,11-tetrahydroxy-10,12-dioxo-5,5a,6,6a,7,10,10a,12-octahydrotetracen-2-yl]amino}-2-oxoethyl)(tert-butyl)amino]carbonyl}oxy)methyl quinoline-2-carboxylate], the MIC was 0.5 to 2 µg/mL (≈ 0.614 to 2.45 µM) in experiment [1] (setting [3]), 0.5 to 4 µg/mL (≈ 0.614 to 4.91 µM) in experiment [1] (setting [4]), 2 to 4 µg/mL (≈ 2.45 to 4.91 µM) in experiment [2] (setting [6]) and above 64 µg/mL in experiment [2] (setting [5]).

On to `CCC(CC)C(=O)OCOC(=O)Nc1cc(N(C)C)c2c(c1O)C(=O)C1=C(O)[C@]3(O)C(=O)C(C(N)=O)=C(O)[C@@H](N(C)C)[C@@H]3C[C@@H]1C2` [Example 85, [({[(5aR,6aS,7S,10aS)-9-(aminocarbonyl)-4,7-bis(dimethylamino)-1,8,10a,11-tetrahydroxy-10,12-dioxo-5,5a,6,6a,7,10,10a,12-octahydrotetracen-2-yl]amino}carbonyl)oxy]methyl 2-ethylbutanoate], for which the MIC was 1 to 2 µg/mL (≈ 1.55 to 3.1 µM) in experiment [1] (setting [3]), 4 to 16 µg/mL (≈ 6.2 to 24.8 µM) in experiment [1] (setting [4]), 1 to 2 µg/mL (≈ 1.55 to 3.1 µM) in experiment [2] (setting [6]) and above 64 µg/mL in experiment [2] (setting [5]).

As to `CN(C)c1cc(NC(=O)OCOC(=O)CC2CCCC2)c(O)c2c1C[C@H]1C[C@H]3[C@H](N(C)C)C(O)=C(C(N)=O)C(=O)[C@@]3(O)C(O)=C1C2=O` [Example 86, [({[(5aR,6aS,7S,10aS)-9-(aminocarbonyl)-4,7-bis(dimethylamino)-1,8,10a,11-tetrahydroxy-10,12-dioxo-5,5a,6,6a,7,10,10a,12-octahydrotetracen-2-yl]amino}carbonyl)oxy]methyl cyclopentylacetate], the MIC in experiment [1] (setting [3]) was 2 to 8 µg/mL (≈ 3.05 to 12.2 µM); in experiment [1] (setting [4]), 8 µg/mL (≈ 12.2 µM); in experiment [2] (setting [6]), 8 to 16 µg/mL (≈ 12.2 to 24.4 µM); in experiment [2] (setting [5]) it was above 64 µg/mL.

In the case of `CN(C)c1cc(NC(=O)CN(C(=O)OCOC(=O)c2cccnc2)C(C)(C)C)c(O)c2c1C[C@H]1C[C@H]3[C@H](N(C)C)C(O)=C(C(N)=O)C(=O)[C@@]3(O)C(O)=C1C2=O` [Example 88, ({[(2-{[(5aR,6aS,7S,10aS)-9-(aminocarbonyl)-4,7-bis(dimethylamino)-1,8,10a,11-tetrahydroxy-10,12-dioxo-5,5a,6,6a,7,10,10a,12-octahydrotetracen-2-yl]amino}-2-oxoethyl)(tert-butyl)amino]carbonyl}oxy)methyl nicotinate], the MIC in experiment [1] (setting [3]) was 1 to 4 µg/mL (≈ 1.31 to 5.23 µM); in experiment [1] (setting [4]), 4 to 16 µg/mL (≈ 5.23 to 20.9 µM); in experiment [2] (setting [6]) it was 0.5 to 2 µg/mL (≈ 0.654 to 2.62 µM); in experiment [2] (setting [5]), 8 to 16 µg/mL (≈ 10.5 to 20.9 µM).

`CN(C)c1cc(NC(=O)CN(C(=O)OCOC(=O)c2ccncc2)C(C)(C)C)c(O)c2c1C[C@H]1C[C@H]3[C@H](N(C)C)C(O)=C(C(N)=O)C(=O)[C@@]3(O)C(O)=C1C2=O` [Example 89, ({[(2-{[(5aR,6aS,7S,10aS)-9-(aminocarbonyl)-4,7-bis(dimethylamino)-1,8,10a,11-tetrahydroxy-10,12-dioxo-5,5a,6,6a,7,10,10a,12-octahydrotetracen-2-yl]amino}-2-oxoethyl)(tert-butyl)amino]carbonyl}oxy)methyl isonicotinate]: the MIC lay in the range of 0.5 to 1 µg/mL (≈ 0.654 to 1.31 µM) in experiment [1] (setting [3]), 1 to 4 µg/mL (≈ 1.31 to 5.23 µM) in experiment [1] (setting [4]), 0.25 to 1 µg/mL (≈ 0.327 to 1.31 µM) in experiment [2] (setting [6]) and 4 to 8 µg/mL (≈ 5.23 to 10.5 µM) in experiment [2] (setting [5]).

For `CN(C)c1cc(NC(=O)CN(C(=O)OCOC(=O)c2ccccc2C(F)(F)F)C(C)(C)C)c(O)c2c1C[C@H]1C[C@H]3[C@H](N(C)C)C(O)=C(C(N)=O)C(=O)[C@@]3(O)C(O)=C1C2=O` [Example 92], the MIC is 4 µg/mL (≈ 4.81 µM) in experiment [1] (setting [3]), 8 to 32 µg/mL (≈ 9.62 to 38.5 µM) in experiment [1] (setting [4]), 4 to 8 µg/mL (≈ 4.81 to 9.62 µM) in experiment [2] (setting [6]) and above 64 µg/mL in experiment [2] (setting [5]).

As to `CN(C)c1cc(NC(=O)CN(C(=O)OCOC(=O)c2ccccc2-c2ccccc2)C(C)(C)C)c(O)c2c1C[C@H]1C[C@H]3[C@H](N(C)C)C(O)=C(C(N)=O)C(=O)[C@@]3(O)C(O)=C1C2=O` [Example 94, ({[(2-{[(5aR,6aS,7S,10aS)-9-(aminocarbonyl)-4,7-bis(dimethylamino)-1,8,10a,11-tetrahydroxy-10,12-dioxo-5,5a,6,6a,7,10,10a,12-octahydrotetracen-2-yl]amino}-2-oxoethyl)(tert-butyl)amino]carbonyl}oxy)methyl 1,1′-biphenyl-2-carboxylate], the MIC in experiment [1] (setting [3]) is 16 to 32 µg/mL (≈ 19 to 38.1 µM); in experiment [1] (setting [4]), above 64 µg/mL; in experiment [2] (setting [6]), 32 to 64 µg/mL (≈ 38.1 to 76.2 µM); in experiment [2] (setting [5]), above 64 µg/mL.

On to `Cc1cc(C)c(C(=O)OCOC(=O)N(CC(=O)Nc2cc(N(C)C)c3c(c2O)C(=O)C2=C(O)[C@]4(O)C(=O)C(C(N)=O)=C(O)[C@@H](N(C)C)[C@@H]4C[C@@H]2C3)C(C)(C)C)c(C)c1` [Example 95, ({[(2-{[(5aR,6aS,7S,10aS)-9-(aminocarbonyl)-4,7-bis(dimethylamino)-1,8,10a,11-tetrahydroxy-10,12-dioxo-5,5a,6,6a,7,10,10a,12-octahydrotetracen-2-yl]amino}-2-oxoethyl)(tert-butyl)amino]carbonyl}oxy)methyl 2,4,6-trimethylbenzoate], for which the MIC in experiment [1] (setting [4]), in experiment [2] (setting [6]) and in experiment [2] (setting [5]) was above 64 µg/mL in each case.

Consider `COc1cc(C(=O)OCOC(=O)N(CC(=O)Nc2cc(N(C)C)c3c(c2O)C(=O)C2=C(O)[C@]4(O)C(=O)C(C(N)=O)=C(O)[C@@H](N(C)C)[C@@H]4C[C@@H]2C3)C(C)(C)C)cc(OC)c1OC` [Example 97, ({[(2-{[(5aR,6aS,7S,10aS)-9-(aminocarbonyl)-4,7-bis(dimethylamino)-1,8,10a,11-tetrahydroxy-10,12-dioxo-5,5a,6,6a,7,10,10a,12-octahydrotetracen-2-yl]amino}-2-oxoethyl)(tert-butyl)amino]carbonyl}oxy)methyl 3,4,5-trimethoxybenzoate], for which the MIC in experiment [1] (setting [3]) was 1 to 4 µg/mL (≈ 1.17 to 4.68 µM); in experiment [1] (setting [4]), 4 to 8 µg/mL (≈ 4.68 to 9.37 µM); in experiment [2] (setting [6]), 4 to 8 µg/mL (≈ 4.68 to 9.37 µM); in experiment [2] (setting [5]), above 64 µg/mL.

With `COc1cc(OC)cc(C(=O)OCOC(=O)N(CC(=O)Nc2cc(N(C)C)c3c(c2O)C(=O)C2=C(O)[C@]4(O)C(=O)C(C(N)=O)=C(O)[C@@H](N(C)C)[C@@H]4C[C@@H]2C3)C(C)(C)C)c1` [Example 98, ({[(2-{[(5aR,6aS,7S,10aS)-9-(aminocarbonyl)-4,7-bis(dimethylamino)-1,8,10a,11-tetrahydroxy-10,12-dioxo-5,5a,6,6a,7,10,10a,12-octahydrotetracen-2-yl]amino}-2-oxoethyl)(tert-butyl)amino]carbonyl}oxy)methyl 3,5-dimethoxybenzoate], the MIC is 0.5 to 2 µg/mL (≈ 0.607 to 2.43 µM) in experiment [1] (setting [3]), 2 to 4 µg/mL (≈ 2.43 to 4.86 µM) in experiment [1] (setting [4]), 1 to 4 µg/mL (≈ 1.21 to 4.86 µM) in experiment [2] (setting [6]) and above 64 µg/mL in experiment [2] (setting [5]).

As usually defined, the MIC is the lowest concentration found to suppress growth.
